We go through 24 compounds from PubChem BioAssay (NCI).

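Protocol summary: plate cells (96-well), add compound at 5 concentrations, incubate 48 h, interpolate endpoints linearly. GI50 marks 50% less growth. TGI: concentration producing complete growth inhibition.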

Common to all, as to assay: NCI anticancer screen, dose series, 48 h
Assay [1] has as its system HS 578T breast.
Assay [2] relates to UACC-257 melanoma.
Assay [3] concerns EKVX NSCLC.
Assay [4] has as its system SK-MEL-5 melanoma.
Assay [5] relates to SW-620 colon.
The subject of assay [6] is OVCAR-4 ovarian.
Assay [7] has as its system SF-539 CNS.
Assay [8] has as its system SR leukemia.

Take `CC(=O)/C(=C\c1c(-c2ccccc2)[nH]c2ccccc12)S(=O)(=O)c1ccccc1`: the GI50 in assay [1] was 3.81 µM; in assay [2] it was 2.23 µM; in assay [3], 3.22 µM; in assay [4], 0.78 µM; in assay [5] it was 0.73 µM; in assay [6], 3.53 µM. Further, in assay [7], the GI50 is 1.31 µM. Also, the TGI in assay [1] was above 93.8 µM; in assay [2], 8.58 µM; in assay [3], above 100 µM; in assay [4], 2.21 µM; in assay [5] it was 7.14 µM; in assay [6] it was above 54.2 µM. Further, the TGI in assay [7] turned out to be 3.08 µM.

On to `Cc1cc(O)cc(C)c1/C=C/c1cncc(C(=O)OC(C)(C)C)c1`, for which the GI50 in assay [1] is 7.64 µM; in assay [2], 19.6 µM; in assay [3], 12.6 µM; in assay [4] it was 10.2 µM; in assay [5] it was 20.2 µM; in assay [6], 12.2 µM. For the same compound, the GI50 in assay [7] is above 18.5 µM. In addition, the TGI was 24.7 µM in assay [1]; above 25 µM in assay [2]; above 25 µM in assay [3]; above 25 µM in assay [4]; above 25 µM in assay [5]; above 25 µM in assay [6]. Further, the TGI in assay [7] was above 25 µM.

For the compound `COc1ccc(/C(=N/O)c2cc(OC)c(OC)c(OC)c2)c(OC)c1N`, the GI50 in assay [1] was 4.74 µM; in assay [3], 6.64 µM; in assay [4] it was 5.34 µM; in assay [5] it was 4.42 µM; in assay [6], 8.18 µM; in assay [7] it was 2.98 µM. Also, the TGI in assay [1], in assay [3], in assay [4], in assay [5], in assay [6] and in assay [7] was above 100 µM throughout.

On to `O=C(COc1ccc(-c2nc3cc(Cl)c(Cl)cc3[nH]2)cc1)N=Nc1c(O)[nH]c2ccccc12`, for which the GI50 in assay [1] was 1.61 µM; in assay [3], 4.97 µM; in assay [8], 0.803 µM; in assay [7], 2.65 µM. For the same compound, the TGI in assay [1] was 5.68 µM; in assay [3], above 100 µM; in assay [8] it was 31.7 µM; in assay [7], 24.2 µM.

For the compound `CCCC#CCOC(=O)c1cc([N+](=O)[O-])cc([N+](=O)[O-])c1`, the TGI in assay [1], in assay [2], in assay [3], in assay [4], in assay [8] and in assay [5] was above 100 µM each time. In assay [7], this compound displayed a TGI above 100 µM.

As for `CC(=O)NC1=C(Sc2ccc(Cl)cc2)C(=O)c2ccccc2C1=O`, the TGI in assay [1] was 61.6 µM; in assay [2] it was 17.3 µM; in assay [3] it was 18.9 µM; in assay [4], 4.8 µM; in assay [5], 4.01 µM; in assay [6], 3.34 µM. The TGI in assay [7] came to 5.85 µM.

Turning to `FC(F)(F)c1[nH]ncc1-c1nc2ccc3[nH]ncc3c2c2c1CCCC2`, the GI50 in assay [2] was 2.67 µM; in assay [3], 1.99 µM; in assay [4] it was 1.55 µM; in assay [8] it was 0.356 µM; in assay [5] it was 1.75 µM; in assay [6] it was 2.82 µM. For the same compound, the GI50 in assay [7] is 1.2 µM. Further, the TGI was found to be 8.69 µM in assay [2]; 7.29 µM in assay [3]; 2.96 µM in assay [4]; 2.73 µM in assay [8]; 11 µM in assay [5]; 11.4 µM in assay [6]. This compound had a TGI in assay [7] of 2.83 µM.

For `CN(C)CCOc1ccc(-c2cc(-c3ccc4c(c3)CC/C4=N\O)c(-c3ccncc3)o2)cc1`, the GI50 in assay [1] is 4.59 µM; in assay [2], 0.0945 µM; in assay [3], 3.93 µM; in assay [4], 2.2 µM; in assay [5], 1.92 µM; in assay [6] it was 5.16 µM. Also, the GI50 in assay [7] is 3.64 µM. The TGI in assay [1] was 12.4 µM; in assay [2] it was 1.87 µM; in assay [3] it was 8.07 µM; in assay [4], 5.86 µM; in assay [5], 5.45 µM; in assay [6], 11.2 µM. This compound also displayed a TGI in assay [7] of 7.41 µM.

Take `Cc1cc2c(=O)[nH]c(N)nc2nc1C`: the TGI in assay [1], in assay [2], in assay [3], in assay [4], in assay [8] and in assay [5] was above 100 µM throughout. In assay [6], this compound gave a TGI above 100 µM.

Turning to `CC(=O)c1cccc(NC(=O)c2ccc(NC3=C(Cl)C(=O)N(Cc4ccccc4)C3=O)cc2)c1`, the GI50 in assay [1] was 22.6 µM; in assay [2], 18.7 µM; in assay [3], 30.3 µM; in assay [4], 12.5 µM; in assay [5] it was 5.87 µM; in assay [6] it was 24.9 µM. Further, the GI50 in assay [7] was 11.4 µM. Further, the TGI in assay [1] was 88.7 µM; in assay [2], 72.4 µM; in assay [3] it was 97.3 µM; in assay [4], 27.7 µM; in assay [5], above 100 µM; in assay [6], 92.2 µM. The same compound registered a TGI in assay [7] of 28.7 µM.

Turning to `C#CC(=O)OCC#CCOC(=O)C#C`, the TGI is 86.5 µM in assay [1]; above 100 µM in assay [2]; 29.9 µM in assay [3]; above 100 µM in assay [4]; 40.6 µM in assay [5]; 28.8 µM in assay [7].

Consider `CCc1ncnc2cc(OCC3CO3)c(OC)cc12` (stereo not given), for which the TGI is 42 µM in assay [1]; 52.9 µM in assay [2]; above 100 µM in assay [3]; 21.9 µM in assay [4]; above 50.8 µM in assay [5]; 24.7 µM in assay [6]. In addition, the TGI in assay [7] stood at 25.2 µM.

For the compound `CCN(CC)c1ccc(/C=C/C=C(/C#N)C(N)=S)cc1`, the GI50 is 38.5 µM in assay [1]; 5.05 µM in assay [2]; 6.5 µM in assay [3]; 5.96 µM in assay [4]; 15.4 µM in assay [5]; 6.27 µM in assay [6]. Moreover, in assay [7], the GI50 was 12.3 µM. Also, the TGI in assay [1] is above 100 µM; in assay [2], 34.4 µM; in assay [3], above 100 µM; in assay [4], above 100 µM; in assay [5] it was above 100 µM; in assay [6], above 100 µM. The compound further came in with a TGI in assay [7] of 31.3 µM.

On to `Cc1cn2c(/C=N/N=C(N)N)c(-c3ccsc3)nc2s1`, for which the GI50 in assay [1] was 13 µM; in assay [2], 18.7 µM; in assay [3], 13.8 µM; in assay [4], 2.71 µM; in assay [5], 5.67 µM. The TGI was 37.8 µM in assay [1]; 35 µM in assay [2]; 27.4 µM in assay [3]; 5.19 µM in assay [4]; 23.3 µM in assay [5].

For `COc1ccc(-c2nnc(Nc3nc(O)c(C4=c5cc(F)ccc5=NC4=O)s3)o2)cc1`, the GI50 in assay [1] is 69.1 µM; in assay [2], above 100 µM; in assay [3], 96.1 µM; in assay [4], 28.7 µM; in assay [5] it was 47.6 µM; in assay [6], 39.7 µM. Moreover, the GI50 in assay [7] is 80.9 µM. For the same compound, the TGI in assay [1], in assay [2], in assay [3], in assay [4], in assay [5] and in assay [6] was above 100 µM in each case. In assay [7], the TGI was above 100 µM.

As for `O=S(=O)(NCCO)c1cc[c]([Sb](=[O])([OH])[OH])cc1`, the GI50 in assay [1], in assay [2], in assay [3], in assay [4], in assay [8] and in assay [5] was above 100 µM in each case. Besides, in assay [6], the GI50 is above 100 µM. For the same compound, the TGI in assay [1], in assay [2], in assay [3], in assay [4], in assay [8] and in assay [5] was above 100 µM in each case. Besides, the TGI in assay [6] is above 100 µM.

As to `N=C(N)SCc1ccc([N+](=O)[O-])cc1[N+](=O)[O-]`, the GI50 in assay [2] is 4.44 µM; in assay [3], 11 µM; in assay [4] it was 6.38 µM; in assay [8] it was 3.09 µM; in assay [6], 6.01 µM; in assay [7], 11 µM. Besides, the TGI in assay [2] was found to be 17 µM; in assay [3], 25.8 µM; in assay [4], 19.6 µM; in assay [8], 11.4 µM; in assay [6] it was 18.7 µM; in assay [7], 25.7 µM.

`CC12CCC(O)CC1=CCC1C2CCC2(C)C(c3cccnc3)=CCC12` (stereo not given): the GI50 in assay [1] was above 100 µM; in assay [3], above 100 µM; in assay [4], 74.2 µM; in assay [8], 93.9 µM; in assay [5], above 100 µM; in assay [6], above 100 µM. For the same compound, the GI50 in assay [7] is above 100 µM. For the same compound, the TGI in assay [1], in assay [3], in assay [4], in assay [8], in assay [5] and in assay [6] was above 100 µM throughout. In addition, in assay [7], the TGI was above 100 µM.

Turning to `CC/C=C\C[C@H](O)C/C=C1/C(=O)C=C[C@@H]1C/C=C\CCCC(=O)NC`, the GI50 in assay [1] was 5.24 µM; in assay [2], 2.08 µM; in assay [3] it was 3.71 µM; in assay [4], 1.62 µM; in assay [5] it was 1.28 µM; in assay [6], 3.04 µM. Further, the TGI is 55.2 µM in assay [1]; 5.32 µM in assay [2]; 15.2 µM in assay [3]; 2.98 µM in assay [4]; 4.63 µM in assay [5]; 19.5 µM in assay [6].

Take `CCCCN1CCN(c2ccc3nc(-c4ccc5nc(-c6ccc(OCC)c(OCC)c6)[nH]c5c4)[nH]c3c2)CC1`: the GI50 in assay [2] is 1.21 µM; in assay [4], 1.09 µM; in assay [8], 0.312 µM; in assay [5] it was 0.474 µM; in assay [6] it was 1.48 µM; in assay [7] it was 1.26 µM. Also, the TGI was 10.5 µM in assay [2]; 3.16 µM in assay [4]; 1.19 µM in assay [8]; 1.79 µM in assay [5]; 3.21 µM in assay [6]; 2.56 µM in assay [7].

For the compound `COc1ccc(-c2nc(-c3nc4ccc(C(F)(F)F)cc4[nH]3)c3ccccn23)cc1`, the GI50 is above 100 µM in assay [1]; above 100 µM in assay [2]; 47 µM in assay [4]; 32.3 µM in assay [8]; above 100 µM in assay [5]; above 100 µM in assay [7]. Further, the TGI in assay [1], in assay [2], in assay [4], in assay [8], in assay [5] and in assay [7] was above 100 µM in each case.

On to `C[n+]1c(/C=C/c2ccc(/C=N/NC(=O)c3ccc(C(=O)N/N=C/c4ccc(/C=C/c5cn6ccccc6[n+]5C)cc4)cc3)cc2)cn2ccccc21`, for which the TGI in assay [1], in assay [2], in assay [3], in assay [4], in assay [5] and in assay [7] was above 100 µM each time.

Turning to `COc1ccc2[nH]c(O)c(/C=c3/ccc4c(c3)N=C(c3ccc(F)cc3)N=4)c2c1`, the GI50 in assay [1] was 2.73 µM; in assay [2], 3.92 µM; in assay [3], 14 µM; in assay [8], 4.95 µM; in assay [5] it was 4.34 µM; in assay [7] it was 3.83 µM. Besides, the TGI in assay [1] was 9.4 µM; in assay [2], 15.3 µM; in assay [3], above 100 µM; in assay [8], above 100 µM; in assay [5], above 100 µM; in assay [7], 23.7 µM.

`CC(C)(C)OC(=O)NCCCCCCCCCCn1c2c(c3ccccc3c1=O)C(=O)c1ccccc1-2`: the GI50 in assay [1] is 24.6 µM; in assay [2], above 100 µM; in assay [3] it was above 100 µM; in assay [4] it was above 100 µM; in assay [5], above 100 µM; in assay [6], above 100 µM. Moreover, the GI50 in assay [7] is 43.1 µM. Besides, the TGI in assay [1], in assay [2], in assay [3], in assay [4], in assay [5] and in assay [6] was above 100 µM in each case. This compound displayed a TGI in assay [7] above 100 µM.
